Measurements as given in patent publication US9072698B2, “Method for screening anti-cancer compounds inhibiting function of TM4SF5 and anti-cancer composition containing chalcone compounds” (Seoul National University Industry Foundation, priority 2006, dated 2015).
In brackets after ≈: the same amount, converted by molar mass.

Tests used:
Format in all cases: cell-based
[1] = system: HCT15 (colon adenocarcinoma); test: In vitro cytotoxicity, sulforhodamine B (SRB) method, HCT15; details: Homo sapiens; HCT-15, SRB method; read-out: cytotoxicity (ED50) HCT-15
Description: (§1) The chalcone derivatives of the present invention were evaluated for in vitro cytotoxicity against human carcinoma cell lines using a sulforhodamine B (SRB) method, which was developed in 1989 by the National Cancer Institute (NCI), USA.
(§2) HCT15 (colon adenocarcinoma; ATCC CCL-225), PC-3 (prostate adenocarcinoma; ATCC CRL-1435), and A-549 (lung carcinoma; ATCC CCL-185) cell lines were used. All of these carcinoma cells were sub-cultured at the Korean Research Institute of Bioscience and Biotechnology (KRIBB), Korea.
(§3) The human carcinoma cell lines were cultured in 10% FCS-containing RPMI 1640 medium (Gibco Cat. No. 31800) in an incubator at 37° C. under 5% CO2, and sub-cultured twice per week.
(§4) Cells were detached from the attached surface using 0.25% Trypsin (Sigma) and 3 mM CDTA (1,2-cyclohexane diamine tetraacetic acid, Sigma) in phosphate buffered saline (PBS, Sigma).
(§5) Compounds to be tested (the chalcone derivatives set forth in Table 1) were dissolved in a small amount of dimethylsulfoxide (DMSO, Sigma), and diluted in culture medium to a desired concentration. The final concentration of DMSO was less than 0.5%. The diluted compounds (final concentration: 30, 10, 3, 1 and 0.3 μg/ml) were sterilized through a 0.22-μm microfilter (Millipore). The cytotoxicity of the compounds to human carcinoma cell lines was assessed using a typical SRB method.

A-549 (lung carcinoma) = test: In vitro cytotoxicity, sulforhodamine B (SRB) method, A-549; details: Homo sapiens, A549; A-549, SRB method; read-out: cytotoxicity (ED50) A-549
Description: as §1, §2, §3, §4, §5

[2] = system: PC-3 (prostate adenocarcinoma); test: In vitro cytotoxicity, sulforhodamine B (SRB) method, PC-3; details: Homo sapiens; PC-3, SRB method; read-out: cytotoxicity (ED50) PC-3
Description: as §1, §2, §3, §4, §5

SMILES	IC50 [1] [µg/mL]	IC50 (A-549 (lung carcinoma)) [µg/mL]	IC50 [2] [µg/mL]
O=C(/C=C/c1ccc(O)c(O)c1)c1ccc(NS(=O)(=O)c2ccc(O)cc2)cc1 [Compound 48, 4′-(p-hydroxybenzenesulfonylamino)-3,4-dihydroxychalcone]	7 (≈ 17 µM)	8 (≈ 19.4 µM)	11 (≈ 26.7 µM)
O=C(/C=C/c1cccc(O)c1)c1cccc(NS(=O)(=O)c2cccc(O)c2)c1 [Compound 19, 3′-(m-hydroxybenzenesulfonylamino)-3-hydroxychalcone]	38 (≈ 96.1 µM)	47 (≈ 119 µM)	53 (≈ 134 µM)
O=C(/C=C/c1cc(O)ccc1O)c1ccccc1NS(=O)(=O)c1cccc(O)c1 [Compound 71, 2′-(m-hydroxybenzenesulfonylamino)-2,5-dihydroxychalcone]	12 (≈ 29.2 µM)	7 (≈ 17 µM)	24 (≈ 58.3 µM)
O=C(/C=C/c1ccc(O)cc1)c1ccc(NS(=O)(=O)c2ccc([N+](=O)[O-])cc2)cc1 [Compound 27, 4′-(p-nitrobenzensulfonylamino)-4-hydroxychalcone]	41 (≈ 96.6 µM)	34 (≈ 80.1 µM)	47 (≈ 111 µM)
O=C(/C=C/c1cc(O)ccc1O)c1ccc(NS(=O)(=O)c2ccc(O)cc2)cc1 [Compound 51, 4′-(p-hydroxybenzenesulfonylamino)-2,5-dihydroxychalcone]	6 (≈ 14.6 µM)	13 (≈ 31.6 µM)	11 (≈ 26.7 µM)
O=C(/C=C/c1ccccc1O)c1ccc(NS(=O)(=O)c2ccc(O)cc2)cc1 [Compound 8, 4′-(p-hydroxybenzenesulfonylamino)-2-hydroxychalcone]	30 (≈ 75.9 µM)	31 (≈ 78.4 µM)	34 (≈ 86 µM)
O=C(/C=C/c1ccccc1O)c1ccc(NS(=O)(=O)c2cccc(O)c2)cc1 [Compound 17, 4′-(m-hydroxybenzenesulfonylamino)-2-hydroxychalcone]	32 (≈ 80.9 µM)	33 (≈ 83.5 µM)	44 (≈ 111 µM)
O=C(/C=C/c1cccc(O)c1O)c1ccc(NS(=O)(=O)c2cccc(O)c2)cc1 [Compound 61, 4′-(m-hydroxybenzenesulfonylamino)-2,3-dihydroxychalcone]	12 (≈ 29.2 µM)	10 (≈ 24.3 µM)	10 (≈ 24.3 µM)
O=C(/C=C/c1ccc(O)c(O)c1)c1ccc(OS(=O)(=O)c2ccc(O)cc2)cc1 [Compound 90, 4′-(p-hydroxybenzenesulfonate)-3,4-dihydroxychalcone]	6 (≈ 14.5 µM)	4 (≈ 9.7 µM)	8 (≈ 19.4 µM)
O=C(/C=C/c1cccc(O)c1O)c1ccccc1NS(=O)(=O)c1ccc(O)cc1 [Compound 57, 2′-(p-hydroxybenzenesulfonylamino)-2,3-dihydroxychalcone]	9 (≈ 21.9 µM)	7 (≈ 17 µM)	10 (≈ 24.3 µM)
O=C(/C=C/c1ccc(O)c(O)c1)c1cccc(NS(=O)(=O)c2ccc(O)cc2)c1 [Compound 52, 3′-(p-hydroxybenzenesulfonylamino)-3,4-dihydroxychalcone]	7 (≈ 17 µM)	6 (≈ 14.6 µM)	5 (≈ 12.2 µM)
O=C(/C=C/c1ccc(O)cc1)c1ccc(OS(=O)(=O)c2cccc(F)c2)cc1 [Compound 37, 4′-(m-fluorobenzenesulfonate)-4-hydroxychalcone]	34 (≈ 85.3 µM)	37 (≈ 92.9 µM)	27 (≈ 67.8 µM)
O=C(/C=C/c1ccc(O)c(O)c1)c1ccccc1NS(=O)(=O)c1ccc(O)cc1 [Compound 56, 2′-(p-hydroxybenzenesulfonylamino)-3,4-dihydroxychalcone]	5 (≈ 12.2 µM)	3 (≈ 7.29 µM)	6 (≈ 14.6 µM)
O=C(/C=C/c1ccccc1O)c1ccccc1NS(=O)(=O)c1cccc(O)c1 [Compound 23, 2′-(m-hydroxybenzenesulfonylamino)-2-hydroxychalcone]	35 (≈ 88.5 µM)	31 (≈ 78.4 µM)	37 (≈ 93.6 µM)
O=C(/C=C/c1cccc(O)c1O)c1ccc(OS(=O)(=O)c2cccc(O)c2)cc1 [Compound 95, 4′-(m-hydroxybenzenesulfonate)-2,3-dihydroxychalcone]	9 (≈ 21.8 µM)	9 (≈ 21.8 µM)	11 (≈ 26.7 µM)
Cc1ccc(S(=O)(=O)Nc2ccccc2C(=O)/C=C/c2ccc(O)cc2)cc1 [Compound 5, 2′-(p-toluenesulfonylamino)-4-hydroxychalcone]	42 (≈ 107 µM)	40 (≈ 102 µM)	47 (≈ 119 µM)
